Columns and labels:
MDA-MB-231 cells [1] = test: Matrigel invasion (evasion) assay; type: cell-based, human; settings: SB431542 5 μM; control MDA-MB-231 cells embedded in a drop of Matrigel
Experimental: (C) Assay for invasive activity of MDA-MB-231 cells embedded in a drop of matrigel. Panels show pictures of the same field at different time points. Dotted is lines highlight the edges of the drop. Only control cells are able to evade from the Matrigel® (arrows). This process is dependent on TGFβ signaling as it is blocked by treatment with the TGFβR1 inhibitor SB431542 (5 μM). MDA shp53 cells are impaired in matrix degradation and evasion.
For matrigel invasion assay shown in FIG. 2C, MDA-MB-231 and derivative cell lines were resuspended in drops ([…]) of Matrigel Growth Factor Reduced (BD Biosciences), diluted 1:2 in DMEM/F12.

MDA-MB-231 cells [2] = test: Transwell migration assay; type: cell-based, human; settings: control MDA-MB-231 cells; TGFβ1 5 ng/ml
Experimental: Transwell migration assay were performed in 24 well PET inserts (Falcon […] pore size) for migration assays. For MDA-MB-231, cells were plated in 10 cm dishes, transfected with siRNA and, after 8 hours, serum starved overnight. Then, 50000 or 100000 cells were plated in transwell inserts (at least 3 replicas for each sample) and either left untreated or treated with TGFβ1 (5 ng/ml). For H1299, cells is were plated in the transwell in 10% serum but then changed to 0.2% serum. For both cell lines, cells in the upper part of the transwells were removed with a cotton swab; migrated cells were fixed in PFA 4% and stained with Crystal Violet 0.5%. Filters were photographed and the total number of cells counted. Every experiment was repeated at least 3 times independently.

Compound	evasion of cells from the Matrigel drop (TGFβ-dependent invasive activity) (MDA-MB-231 cells [1])	migration through transwell in response to TGFβ (MDA-MB-231 cells [2])
NC(=O)c1ccc(-c2nc(-c3ccc4c(c3)OCO4)c(-c3ccccn3)[nH]2)cc1 [SB431542]	blocked	–
TGFβ: TGFβ provided from Peprotech, used to treat cells	–	potent promigratory response

Source: patent US20120035069A1, “PROGNOSIS OF BREAST CANCER PATIENTS BY MONITORING THE EXPRESSION OF TWO GENES” (priority 2009, published 2012)
